Assays:
[1] = tested on: pro-inflammatory cytokines and chemokines; assay: Gene-expression analysis of innate immune response in liver by RT-PCR; assay type: in vivo, C57BL/6J mice
Experimental: Recombinant AAV Vector Transduction Studies in Vivo. Groups of 6-weeks old normal C57BL/6J mice (Jackson Laboratories, Bar Harbor, Me., USA) were administered intra-peritoneally, with a single dose (20 mg/kg) of NF-κB inhibitor Bay11, in a 200-μL volume diluted in DMSO (day 0). Animals injected with only the DMSO carrier solvent were considered as baseline (mock) group (n=75) and animals injected with Bay11 were the test group (n=75). At this point, the animals from mock and Bay11 groups were randomized to receive either phosphate buffered saline (PBS, pH 7.4) or WT-AAV or TM-AAV vectors (n=25 mice each group). On day 1, ˜1×10^11 viral genome (vg) particles of WT-AAV2-EGFP or TM-AAV2-EGFP vectors or PBS were administered intravenously via the tail vein. To measure the modulation of immune response to AAV, 5 animals each from PBS-, WT-AAV-, or TM-AAV vector-injected groups were sacrificed by carbon-dioxide inhalation at different time points post-vector administration (2, 6, 10, 24 hrs and day 10). Hepatic lobes were collected, cross-sectioned and mounted on slides to study the effect of Bay11 on AAV-mediated EGFP expression (from day 10 mice). […]
Gene-Expression Analysis of Innate Immune Response by RT-PCR Assay. […] Data were captured and analyzed using an ABI Prism 7500 Sequence Detection System with v1.1 Software (Applied Biosystems). The baseline was determined automatically for the 18S rRNA and for other genes. Thresholds were determined manually for all genes. Gene expression was measured by the comparative threshold cycle (Ct) method. The parameter threshold cycle (Ct) was defined as the cycle number at which the reporter fluorescence generated by the cleavage of the probe passed a fixed threshold above baseline. […] Relative gene expression was determined for each group of treated and untreated animals and values >2.6 and <0.38 were considered as significant up-regulations and down-regulations between the groups and was calculated by assessing the variability in the 96 well plates used to measure specific gene expression.

[2] = tested on: non-canonical NF-κB pathway (p100, p52); assay: Western blot of NF-κB pathway components in HeLa cells; assay type: cell-based, human
Text: Western Blot Analyses. Homogenized lysates of the cell pellets from ˜2×10^6 HeLa cells or DCs, mock or pre-treated with the optimal concentration of NF-κB activators or inhibitors were used for sample preparation. Whole cell proteins were isolated using the RIPA lysis buffer (Sigma-Aldrich Co.) and cytoplasmic and nuclear proteins were extracted using a commercial kit (NE-PER Extraction Reagent Kit, Pierce Biotech, Rockford, Ill., USA) as per the manufacturer's protocol in the presence of a protease inhibitor cocktail (Halt™ Protease Inhibitor Cocktail Kit, Pierce Biotech). The protein extracts were boiled for 5 min under reducing conditions [SDS-sample buffer containing 62.5 mM Tris-HCl (pH 6.8 at 25° C.), 2% wt./vol. SDS, 10% glycerol, 50 mM DTT, 0.01% wt./vol. bromo-phenol blue (Cell Signaling Technology, Inc.)] and stored at −86° C. until further analysis. Equal volumes of samples were run on 4-15% SDS-PAGE (Bio-Rad, Hercules, Calif., USA). […] The intensity of the protein bands was measured with Adobe Photoshop CS3 Software® and normalized to proteins levels from the housekeeping gene products used as loading controls.

anti-AAV2 IgG2a = assay: Anti-AAV2 IgG2a levels in peripheral blood; assay type: in vivo, mice; conditions: day 10
Experimental: Anti-AAV2 IgG2a levels were determined in peripheral blood from mice at day 10 following injections with scAAV vectors, with and without prior administration of Bay11 (n=4 each);
Inhibition of NF-κB Activation Leads to Suppression of Pro-Inflammatory Cytokine Production Prior to AAV Vector-Mediated Gene Transfer in Mice in Vivo. In in vivo studies, a single dose of Bay11 at 20 mg/kg body weight was administered intra-peritoneally (i.p.) 12 hrs prior to vector administration in C57BL/6 mice. Transcript levels from liver homogenates of innate immune mediators (FIG. 3A) or for activation of NF-κB (FIG. 3B) genes were measured from Bay11- and vector-injected groups and compared with sham-injected mice. […] The up-regulation of type I interferon expression by both wild-type (WT-AAV) and TM-AAV vectors was unaffected by Bay11 (FIG. 8A, FIG. 8B, FIG. 8C, FIG. 8D, FIG. 8E, and FIG. 8F).

Cc1ccc(S(=O)(=O)/C=C/C#N)cc1 [Bay11, Bay11-7082]
levels of pro-inflammatory cytokines or chemokines (IL-1α, IL-6, TNFα, IL-12α, KC, RANTES) in liver ([1]; Bay11 20 mg/kg i.p. 12 hrs prior to vector, 2 hrs post-vector): significantly reduced
decrease in AAV vector-induced production of pro-inflammatory cytokines and chemokines ([1]; Bay11 prior to gene transfer, C57BL/6 mice): up to 7 fold
up-regulation of type I interferon expression by WT-AAV and TM-AAV vectors ([1]; mouse, in vivo): unaffected
AAV-induced increase of p100 and p52 [2]: ablated
anti-AAV2 antibody response (anti-AAV2 IgG2a): significantly reduced

— patent US12358954B2, “Capsid-modified rAAV vector compositions and methods therefor” (priority 2012, dated 2025)
